# Assay results from the NIST ThermoML archive (doi:10.1021/je050440b).
# ± gives the expanded uncertainty stated by the source.
# Test: activity coefficient (dimensionless); of the first substance listed, at infinite dilution; xn = mol fraction of the nth substance listed
# Conditions: Liquid, Chromatography, x1 = 0
smiles,measurement,setting,value
C1=CCCCC1 [cyclohexene] + CCCC[N+](C)(C)C.O=S(=O)([N-]S(=O)(=O)C(F)(F)F)C(F)(F)F,activity coefficient,312.05 K,6.87 ± 0.47
same,activity coefficient,322.55 K,6.45 ± 0.44
same,activity coefficient,333.25 K,5.94 ± 0.4
same,activity coefficient,343.65 K,5.5 ± 0.37
same,activity coefficient,354.15 K,5.31 ± 0.36
CCCCC [pentane] + CCCC[N+](C)(C)C.O=S(=O)([N-]S(=O)(=O)C(F)(F)F)C(F)(F)F,activity coefficient,301.85 K,13.7 ± 0.93
same,activity coefficient,322.85 K,13.9 ± 0.95
CCCC=O [butanal] + CCCC[N+](C)(C)C.O=S(=O)([N-]S(=O)(=O)C(F)(F)F)C(F)(F)F,activity coefficient,301.75 K,0.84 ± 0.05
same,activity coefficient,312.25 K,0.8 ± 0.05
same,activity coefficient,322.75 K,0.79 ± 0.05
same,activity coefficient,343.55 K,0.77 ± 0.05
same,activity coefficient,354.15 K,0.76 ± 0.05
C=CCCCCCC [oct-1-ene] + CCCC[N+](C)(C)C.O=S(=O)([N-]S(=O)(=O)C(F)(F)F)C(F)(F)F,activity coefficient,306.75 K,22.9 ± 1.6
same,activity coefficient,312.98 K,22 ± 1.5
same,activity coefficient,322.55 K,20.4 ± 1.4
same,activity coefficient,333.25 K,19 ± 1.3
same,activity coefficient,343.65 K,17.2 ± 1.2
same,activity coefficient,354.05 K,16.2 ± 1.1
same,activity coefficient,364.55 K,15.1 ± 1
C=CCCCC [hex-1-ene] + CCCC[N+](C)(C)C.O=S(=O)([N-]S(=O)(=O)C(F)(F)F)C(F)(F)F,activity coefficient,305.85 K,10.2 ± 0.7
same,activity coefficient,312.35 K,9.81 ± 0.67
same,activity coefficient,322.55 K,9.46 ± 0.65
same,activity coefficient,343.65 K,8.63 ± 0.59
same,activity coefficient,364.55 K,7.93 ± 0.54
CCCCCCC=O [heptanal] + CCCC[N+](C)(C)C.O=S(=O)([N-]S(=O)(=O)C(F)(F)F)C(F)(F)F,activity coefficient,354.15 K,1.84 ± 0.12
same,activity coefficient,364.65 K,1.73 ± 0.12
same,activity coefficient,374.95 K,1.6 ± 0.11
same,activity coefficient,385.45 K,1.48 ± 0.1
same,activity coefficient,395.95 K,1.36 ± 0.09
CCCCCc1ccccc1 [pentylbenzene] + CCCC[N+](C)(C)C.O=S(=O)([N-]S(=O)(=O)C(F)(F)F)C(F)(F)F,activity coefficient,354.05 K,7.92 ± 0.54
same,activity coefficient,364.45 K,7.69 ± 0.52
same,activity coefficient,374.95 K,7.36 ± 0.5
same,activity coefficient,385.45 K,7.07 ± 0.48
CC(C)(C)O [2-methylpropan-2-ol] + CCCC[N+](C)(C)C.O=S(=O)([N-]S(=O)(=O)C(F)(F)F)C(F)(F)F,activity coefficient,302.55 K,2.24 ± 0.15
same,activity coefficient,312.15 K,2.01 ± 0.14
same,activity coefficient,322.85 K,1.79 ± 0.12
same,activity coefficient,333.25 K,1.61 ± 0.11
same,activity coefficient,343.65 K,1.47 ± 0.1
same,activity coefficient,354.05 K,1.34 ± 0.09
CCCCCCCO [heptan-1-ol] + CCCC[N+](C)(C)C.O=S(=O)([N-]S(=O)(=O)C(F)(F)F)C(F)(F)F,activity coefficient,354.05 K,3.47 ± 0.24
same,activity coefficient,364.63 K,3.11 ± 0.21
same,activity coefficient,375.05 K,2.81 ± 0.19
same,activity coefficient,386.6 K,2.58 ± 0.18
"C1=CCCC=C1 [1,3-cyclohexadiene] + CCCC[N+](C)(C)C.O=S(=O)([N-]S(=O)(=O)C(F)(F)F)C(F)(F)F",activity coefficient,305.95 K,3.59 ± 0.24
same,activity coefficient,322.55 K,3.37 ± 0.23
same,activity coefficient,333.25 K,3.18 ± 0.22
same,activity coefficient,343.65 K,3.03 ± 0.21
same,activity coefficient,354.15 K,2.91 ± 0.2
same,activity coefficient,364.55 K,2.81 ± 0.19
"C1COCCO1 [1,4-dioxane] + CCCC[N+](C)(C)C.O=S(=O)([N-]S(=O)(=O)C(F)(F)F)C(F)(F)F",activity coefficient,343.75 K,0.74 ± 0.05
same,activity coefficient,354.25 K,0.73 ± 0.05
CCCCCCCCC [nonane] + CCCC[N+](C)(C)C.O=S(=O)([N-]S(=O)(=O)C(F)(F)F)C(F)(F)F,activity coefficient,301.65 K,67.5 ± 4.6
same,activity coefficient,312.15 K,59.8 ± 4.1
same,activity coefficient,322.75 K,52.6 ± 3.6
same,activity coefficient,333.25 K,47.3 ± 3.2
same,activity coefficient,343.65 K,43.2 ± 3
same,activity coefficient,354.05 K,39 ± 2.7
same,activity coefficient,364.55 K,36 ± 2.5
same,activity coefficient,374.95 K,32.3 ± 2.2
CO [methanol] + CCCC[N+](C)(C)C.O=S(=O)([N-]S(=O)(=O)C(F)(F)F)C(F)(F)F,activity coefficient,303.95 K,1.55 ± 0.1
same,activity coefficient,312.05 K,1.42 ± 0.09
same,activity coefficient,333.25 K,1.15 ± 0.07
same,activity coefficient,343.65 K,1.02 ± 0.06
CCCCCC [hexane] + CCCC[N+](C)(C)C.O=S(=O)([N-]S(=O)(=O)C(F)(F)F)C(F)(F)F,activity coefficient,301.85 K,19.4 ± 1.3
same,activity coefficient,312.35 K,18.1 ± 1.2
same,activity coefficient,322.85 K,17.6 ± 1.2
same,activity coefficient,333.35 K,16.3 ± 1.1
CCC=O [propanal] + CCCC[N+](C)(C)C.O=S(=O)([N-]S(=O)(=O)C(F)(F)F)C(F)(F)F,activity coefficient,301.65 K,0.58 ± 0.04
same,activity coefficient,312.25 K,0.57 ± 0.04
same,activity coefficient,322.75 K,0.54 ± 0.04
same,activity coefficient,333.25 K,0.53 ± 0.04
same,activity coefficient,343.55 K,0.52 ± 0.04
CC(C)CO [2-methyl-1-propanol] + CCCC[N+](C)(C)C.O=S(=O)([N-]S(=O)(=O)C(F)(F)F)C(F)(F)F,activity coefficient,302.55 K,3.98 ± 0.27
same,activity coefficient,312.15 K,3.52 ± 0.24
same,activity coefficient,322.85 K,3.13 ± 0.21
same,activity coefficient,333.35 K,2.72 ± 0.19
same,activity coefficient,343.65 K,2.46 ± 0.17
same,activity coefficient,354.05 K,2.23 ± 0.15
CN(C)C=O [dimethylformamide] + CCCC[N+](C)(C)C.O=S(=O)([N-]S(=O)(=O)C(F)(F)F)C(F)(F)F,activity coefficient,364.55 K,0.29 ± 0.03
same,activity coefficient,375.15 K,0.29 ± 0.03
same,activity coefficient,385.55 K,0.3 ± 0.03
same,activity coefficient,396.15 K,0.3 ± 0.03
CCCCCCCC [octane] + CCCC[N+](C)(C)C.O=S(=O)([N-]S(=O)(=O)C(F)(F)F)C(F)(F)F,activity coefficient,301.62 K,45.4 ± 3.1
same,activity coefficient,312.15 K,41 ± 2.8
same,activity coefficient,322.75 K,37.2 ± 2.5
same,activity coefficient,333.25 K,34.1 ± 2.3
CCc1ccccc1 [ethylbenzene] + CCCC[N+](C)(C)C.O=S(=O)([N-]S(=O)(=O)C(F)(F)F)C(F)(F)F,activity coefficient,322.85 K,2.79 ± 0.19
same,activity coefficient,333.25 K,2.76 ± 0.19
same,activity coefficient,343.75 K,2.65 ± 0.18
same,activity coefficient,354.15 K,2.6 ± 0.18
C=CCCCCCCCCC [1-undecene] + CCCC[N+](C)(C)C.O=S(=O)([N-]S(=O)(=O)C(F)(F)F)C(F)(F)F,activity coefficient,322.55 K,62.7 ± 4.3
same,activity coefficient,333.25 K,56.1 ± 3.8
same,activity coefficient,343.65 K,50.7 ± 3.5
same,activity coefficient,354.05 K,45.8 ± 3.1
same,activity coefficient,364.55 K,42.6 ± 2.9
same,activity coefficient,374.95 K,37.6 ± 2.6
CCCCCC=O [hexanal] + CCCC[N+](C)(C)C.O=S(=O)([N-]S(=O)(=O)C(F)(F)F)C(F)(F)F,activity coefficient,322.75 K,1.92 ± 0.13
same,activity coefficient,333.25 K,1.9 ± 0.13
same,activity coefficient,343.55 K,1.88 ± 0.13
same,activity coefficient,354.15 K,1.85 ± 0.12
same,activity coefficient,364.65 K,1.84 ± 0.12
CCCCc1ccccc1 [butylbenzene] + CCCC[N+](C)(C)C.O=S(=O)([N-]S(=O)(=O)C(F)(F)F)C(F)(F)F,activity coefficient,333.25 K,5.77 ± 0.39
same,activity coefficient,343.65 K,5.62 ± 0.38
same,activity coefficient,354.05 K,5.43 ± 0.37
same,activity coefficient,364.45 K,5.31 ± 0.36
same,activity coefficient,374.95 K,5.16 ± 0.35
